Results taken from patent US11471448B2 (priority 2020, dated 2022).
Counter-ions that a name gives are not always drawn.

Columns and labels:
[1] = test system: patients with COVID-19 pneumonia; experiment: Pilot study / compassionate use of opaganib in hospitalized COVID-19 pneumonia patients; format: in vivo, human
Text: Return to room air or a specific SpO2 oxygen saturation on room air. Assessment of on-treatment viral load changes, and changes in D-dimer, cardiac troponin, LDH and ferritin levels. Study Design:
Patients entered a screening period of up to 1 week. Eligible patients entered the treatment period for up to 2 weeks. All participants were followed for 2 weeks after their last dose of study drug, at the end of the 2 week treatment period, or once they had 2 consecutive daily negative viral swabs for the COVID-19 virus or at after premature drug discontinuation prior to Day 14. The maximum duration of study participation was 35 days […].
• 1. Adult male or female≥18 to ≤75 years of age, inclusive • 2. Proven COVID-19 infection and pneumonia not requiring mechanical ventilation or mechanically ventilated for no more than 24 hours at time of informed consent • 3. The patient, guardian or legally acceptable representative has signed a written IRB-approved informed consent. Key Exclusion Criteria: • 1. New York Heart Association Class III or IV, cardiac disease, myocardial infarction within the past 6 months, unstable arrhythmia, or evidence of ischemia on ECG • 2. Any co-morbidity that may add risk to the treatment in the judgement of the investigator. • 3. Pregnant (positive serum test) or nursing women • 4. Unwillingness or inability to comply with procedures required in this protocol. • 5. AST (SGOT) or ALT (SGPT)>2.5× upper limit of normal (ULN) • 6. Bilirubin>1.5×ULN (except where bilirubin increase is due to Gilbert's Syndrome) • 7. Serum creatinine>2.0×ULN • 8. Absolute neutrophil count<1000 cells/mm^3 • 9. Platelet count<75,000/mm^3 • 10. Hemoglobin<8.0 g/dL • 11. Currently taking warfarin, apixaban, argatroban or rivaroxaban • 12. Current drug or alcohol abuse Study Assessments: The following will be monitored daily (see Table 3): • Review of concomitant medications • Adverse Events • Physical exam • Vital signs (temperature, blood pressure, pulse rate, respiratory rate and oxygen saturation by pulse oximeter) • Clinical symptoms (cough, dyspnea, nausea, vomiting, diarrhea) • Nasopharyngeal viral swab • Serum chemistry • CBC with differential • Chest X-ray • Urinalysis
Each dose is administered with food or 15-30 minutes after tube-feeding, where appropriate.
These patients had moderate to severe COVID-19-related pneumonia with hypoxia on supplemental oxygen.
Five patients were included in the analysis, and for comparison purposes, we used a control group with same-sex, same-severity patients (baseline characteristics). Univariate comparisons between the groups were performed with chi-square test for categorical variables and t-test or MannWhitney U-test for continuous variables, as appropriate. Time variables were compared with Cox proportional hazard regression, adjusted for age and background illnesses. CRP and lymphocyte changes were compared utilizing a repeated measures general linear model with a Bonferroni correction for multiple comparison.

[2] = test system: SARS-CoV-2 clinical isolate (2019-nCoV/USA-WA1/2020); experiment: Anti-viral activity against SARS-CoV-2 in HBEC air-liquid-interface cultures (apical viral titer by TCID50); format: cell-based
[3] = of 6 moderate-to-severe patients

O=C(NCc1ccncc1)C12CC3CC(C1)CC(c1ccc(Cl)cc1)(C3)C2 [opaganib, 3-(4-chlorophenyl)-adamantane-1-carboxylic acid (pyridin-4-ylmethyl) amide, hydrochloride salt]
HR, time to weaning from HFNC, cases vs. controls ([1]; 95% CI: 0.07-1.7, p=0.2, Cox regression adjusted for age and background illnesses): 0.3
HR, time to ambient air, cases vs. controls ([1]; 95% CI: 0.15-1.5): 0.4
Lymphocytes, most recent ([1]; Patient 1 (14 d), baseline 1.6, 17 Apr. 2020): 2.8 (17 Apr. 2020) 10^3/mm^3
CRP, most recent ([1]; Patient 1 (14 d), baseline 15.1, 17 Apr. 2020): 1 (17 Apr. 2020) mg/L
Clinical Assessment ([1]; Patient 1 (14 d on opaganib), started severe on maximal OptiFlow 3 Apr. 2020): 3 Apr. 2020; RA by 16/4. As of 22/4, one negative
Lymphocytes, most recent ([1]; Patient 2 (14 d), baseline 1.1, 17 Apr. 2020): 2.1 (17 Apr. 2020) 10^3/mm^3
CRP, most recent ([1]; Patient 2 (14 d), baseline 14.2, 17 Apr. 2020): 4.8 (17 Apr. 2020) mg/L
Clinical Assessment ([1]; Patient 2 (14 d), started severe+, planning for intubation 7 Apr. 2020): 7 Apr. 2020; RA by 20 Apr. 4 2020, D/C on
Lymphocytes, most recent ([1]; Patient 3 (7 d), baseline 0.9, 17 Apr. 2020): 1.2 (17 Apr. 2020) 10^3/mm^3
CRP, most recent ([1]; Patient 3 (7 d), baseline 10.7, 17 Apr. 2020): 1.7 (17 Apr. 2020) mg/L
Clinical Assessment ([1]; Patient 3 (7 d), moderate-severe, on OptiFlow 13 Apr. 2020, RA by 17 Apr. 2020): 17 Apr. 2020, D/C on 19 Apr. 2020
Lymphocytes, most recent ([1]; Patient 4 (11 d), baseline 1.2, 22 Apr. 2020): 1 (22 Apr. 2020) 10^3/mm^3
CRP, most recent ([1]; Patient 4 (11 d), baseline 24.8, 22 Apr. 2020): 17.4 (22 Apr. 2020) mg/L
Clinical Assessment ([1]; Patient 4 (11 d), started severe+ 70% OptiFlow on 13 Apr. 2020): RA on 22 Apr. 2020
Clinical Assessment ([1]; Patient 5 (2 d), started moderate on 13 Apr. 2020, nasal cannula, D/C on 14 Apr. 2020 on RA): Dramatic improvement after one day on
Lymphocytes, most recent ([1]; Patient 6 (5 d), baseline 1.35, 24 Apr. 2020): 1.96 (24 Apr. 2020) 10^3/mm^3
CRP, most recent ([1]; Patient 6 (5 d), baseline 12.2, 24 Apr. 2020): 6.8 (24 Apr. 2020) mg/L
adverse event leading to discontinuation ([1]; Patient 7 (1 d), also on HCQ and azithromycin, may or may not be related to opaganib): opaganib started. Diarrhea the next day, all 3 meds were stopped, followed by worsening SOB, on 75% OptiFlow.
C-Reactive Protein (CRP) ([1]; all six patients): reduction
clinical improvement, including reduced supplemental oxygenation and higher lymphocyte counts ([1]; all six patients): measurable clinical improvement
median time to weaning from high-flow nasal cannula (HFNC) ([1]; cases, controls 15 days): 10 days
cases requiring mechanical ventilation ([1]; compared with 33% of controls): none
lymphocyte count change vs. matched controls ([1]; five patients vs. same-sex, same-severity control group): significantly faster increase
patients back to breathing room air [1, 3]: 5 patients
patients discharged from hospital [1, 3]: 3 patients
moderate to-severe patients improved significantly ([1]; of 6 patients treated (patient #7 excepted), opaganib plus standard-of-care): 6 patients
50% inhibition reached in the concentration range tested ([2]; 0.05 to 11.25 μg/ml): neither 50% inhibition nor 50% cytotoxicity were reached
concentration from which complete inhibition of infectious virus production is seen ([2]; SARS-CoV-2-infected HBEC, 3 days incubation): ≥ 1 µg/mL
